Data on 4 molecules can be found in ChEMBL document CHEMBL2417377, “Hit-to-lead optimization and kinase selectivity of imidazo[1,2-a]quinoxalin-4-amine derived JNK1 inhibitors” (Bioorg Med Chem Lett, 2013).

Bounds are passed on as bounds.

What all share (conditions): PC-3
The target of test [1] is T1, Eukaryotic translation initiation factor 2-alpha kinase 3 (Homo sapiens) (UniProt Q9NZJ5).
T1 sequence (whole entry): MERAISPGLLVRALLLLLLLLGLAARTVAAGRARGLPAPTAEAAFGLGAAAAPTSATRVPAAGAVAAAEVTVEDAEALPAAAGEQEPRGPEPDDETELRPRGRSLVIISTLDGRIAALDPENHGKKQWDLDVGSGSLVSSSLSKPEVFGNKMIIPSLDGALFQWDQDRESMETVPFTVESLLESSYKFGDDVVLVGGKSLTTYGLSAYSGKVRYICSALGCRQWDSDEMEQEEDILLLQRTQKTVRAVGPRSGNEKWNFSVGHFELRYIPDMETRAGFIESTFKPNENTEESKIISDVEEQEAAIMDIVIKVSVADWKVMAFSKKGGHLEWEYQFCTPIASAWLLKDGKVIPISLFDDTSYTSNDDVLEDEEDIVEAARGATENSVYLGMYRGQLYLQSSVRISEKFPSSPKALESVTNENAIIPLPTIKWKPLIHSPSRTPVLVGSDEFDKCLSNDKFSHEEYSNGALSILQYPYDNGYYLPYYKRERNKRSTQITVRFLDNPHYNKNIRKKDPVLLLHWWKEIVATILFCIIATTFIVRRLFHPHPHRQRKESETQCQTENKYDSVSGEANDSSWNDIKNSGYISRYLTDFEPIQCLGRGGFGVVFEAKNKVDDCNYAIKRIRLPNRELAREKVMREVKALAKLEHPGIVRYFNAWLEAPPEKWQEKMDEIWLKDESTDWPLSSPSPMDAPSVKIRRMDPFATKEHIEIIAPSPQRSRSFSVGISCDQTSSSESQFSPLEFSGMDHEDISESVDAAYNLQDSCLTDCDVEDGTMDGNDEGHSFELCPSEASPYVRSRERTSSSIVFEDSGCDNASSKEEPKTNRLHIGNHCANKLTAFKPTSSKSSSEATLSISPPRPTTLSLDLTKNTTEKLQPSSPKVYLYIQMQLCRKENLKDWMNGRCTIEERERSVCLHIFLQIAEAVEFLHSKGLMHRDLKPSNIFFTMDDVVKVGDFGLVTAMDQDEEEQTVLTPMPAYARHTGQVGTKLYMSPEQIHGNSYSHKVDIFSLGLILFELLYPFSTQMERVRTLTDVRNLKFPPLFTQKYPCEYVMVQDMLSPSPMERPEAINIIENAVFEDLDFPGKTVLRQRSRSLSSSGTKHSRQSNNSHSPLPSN
The experiment in a line: Inhibition of PEK in human PC3 cell lysates at 30 uM using desthiobiotin-tagged ATP probe AX9989 followed by trypsinization by LC/MS analysis.

Test [2] addresses T2, Phosphatidylinositol 5-phosphate 4-kinase type-2 gamma (Homo sapiens) (UniProt Q8TBX8).
T2 sequence (whole entry): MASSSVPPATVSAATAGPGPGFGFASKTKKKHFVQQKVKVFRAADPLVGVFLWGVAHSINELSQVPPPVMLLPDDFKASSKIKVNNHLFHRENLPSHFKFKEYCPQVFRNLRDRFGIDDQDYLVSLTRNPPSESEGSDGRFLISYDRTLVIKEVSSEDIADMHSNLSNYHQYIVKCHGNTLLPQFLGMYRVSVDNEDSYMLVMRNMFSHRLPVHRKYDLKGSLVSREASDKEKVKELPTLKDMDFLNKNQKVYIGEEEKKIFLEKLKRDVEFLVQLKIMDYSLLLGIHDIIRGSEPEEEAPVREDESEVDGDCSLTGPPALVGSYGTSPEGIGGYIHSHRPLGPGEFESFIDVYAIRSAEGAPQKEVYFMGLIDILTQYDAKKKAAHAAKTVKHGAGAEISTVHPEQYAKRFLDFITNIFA
The test is described as follows: Inhibition of PIP4K2C in human PC3 cell lysates at 30 uM using desthiobiotin-tagged ATP probe AX9989 followed by trypsinization by LC/MS analysis.

For test [3], the target named is T3, Serine/threonine-protein kinase TAO2 (Homo sapiens) (UniProt Q9UL54).
T3 sequence (whole entry): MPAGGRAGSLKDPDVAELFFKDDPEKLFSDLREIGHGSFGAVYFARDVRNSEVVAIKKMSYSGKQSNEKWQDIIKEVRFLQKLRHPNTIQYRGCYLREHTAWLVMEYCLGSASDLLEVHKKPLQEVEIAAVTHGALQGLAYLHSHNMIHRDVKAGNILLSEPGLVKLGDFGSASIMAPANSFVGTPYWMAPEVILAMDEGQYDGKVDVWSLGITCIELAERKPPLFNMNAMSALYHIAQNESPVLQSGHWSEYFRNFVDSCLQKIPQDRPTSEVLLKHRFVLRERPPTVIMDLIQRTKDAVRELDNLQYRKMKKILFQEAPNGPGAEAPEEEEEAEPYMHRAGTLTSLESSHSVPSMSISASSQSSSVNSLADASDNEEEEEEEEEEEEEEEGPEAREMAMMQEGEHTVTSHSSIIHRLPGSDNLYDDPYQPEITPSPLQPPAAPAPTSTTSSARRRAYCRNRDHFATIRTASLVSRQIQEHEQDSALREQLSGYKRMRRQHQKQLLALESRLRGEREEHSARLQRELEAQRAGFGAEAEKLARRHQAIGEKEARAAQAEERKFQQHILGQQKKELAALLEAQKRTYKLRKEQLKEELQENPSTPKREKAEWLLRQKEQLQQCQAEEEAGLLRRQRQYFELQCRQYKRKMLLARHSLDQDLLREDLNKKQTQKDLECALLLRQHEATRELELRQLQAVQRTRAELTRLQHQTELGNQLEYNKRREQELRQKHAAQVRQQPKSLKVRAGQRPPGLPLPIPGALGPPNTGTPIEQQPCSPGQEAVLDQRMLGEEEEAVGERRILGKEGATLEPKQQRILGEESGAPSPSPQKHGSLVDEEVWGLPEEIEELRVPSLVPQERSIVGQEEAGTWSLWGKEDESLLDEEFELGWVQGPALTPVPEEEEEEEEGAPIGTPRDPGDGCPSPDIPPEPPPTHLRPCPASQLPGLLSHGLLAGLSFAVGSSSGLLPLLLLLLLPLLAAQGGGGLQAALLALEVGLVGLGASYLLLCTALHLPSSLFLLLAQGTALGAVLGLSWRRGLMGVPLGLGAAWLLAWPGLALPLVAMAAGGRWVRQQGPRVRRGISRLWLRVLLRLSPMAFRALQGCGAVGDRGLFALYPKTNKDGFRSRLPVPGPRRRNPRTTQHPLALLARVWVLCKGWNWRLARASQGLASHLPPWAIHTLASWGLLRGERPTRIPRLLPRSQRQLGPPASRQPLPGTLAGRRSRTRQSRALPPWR
The experiment in a line: Inhibition of TAO2 in human PC3 cell lysates at 30 uM using desthiobiotin-tagged ATP probe AX9989 followed by trypsinization by LC/MS analysis.

Test [4] has as its target Cyclin-dependent kinase 16 (Homo sapiens) (UniProt Q00536). The test is described as follows: Inhibition of PCTAIRE1 in human PC3 cell lysates at 30 uM using desthiobiotin-tagged ATP probe AX9989 followed by trypsinization by LC/MS analysis.

Sequence of Cyclin-dependent kinase 16 (Homo sapiens) (Q00536 whole entry): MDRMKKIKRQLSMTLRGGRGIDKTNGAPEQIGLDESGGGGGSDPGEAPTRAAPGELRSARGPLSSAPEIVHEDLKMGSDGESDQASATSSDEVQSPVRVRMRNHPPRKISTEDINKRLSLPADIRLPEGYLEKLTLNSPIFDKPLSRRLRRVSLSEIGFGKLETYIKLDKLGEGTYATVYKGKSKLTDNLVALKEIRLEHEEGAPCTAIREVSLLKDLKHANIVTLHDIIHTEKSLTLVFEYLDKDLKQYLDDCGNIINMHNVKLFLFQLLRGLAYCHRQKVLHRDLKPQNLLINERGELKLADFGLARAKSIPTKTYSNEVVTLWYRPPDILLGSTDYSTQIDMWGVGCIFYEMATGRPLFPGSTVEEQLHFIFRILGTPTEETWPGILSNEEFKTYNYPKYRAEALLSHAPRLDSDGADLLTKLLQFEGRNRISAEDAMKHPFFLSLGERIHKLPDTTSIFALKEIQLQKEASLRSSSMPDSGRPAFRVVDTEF

With `c1ccc(CCNc2nc3ccccc3n3ccnc23)cc1`, the inhibition (commonly the relative decrease from the control value, in per cent) was below 35% in test [1], 52.6% in test [2], below 35% in test [3] and below 35% in test [4].

With `c1ccc2c(c1)nc(NC1CCCCC1)c1nccn12`, the inhibition in test [1], in test [2], in test [3] and in test [4] was below 35% throughout.

For `O[C@H]1CC[C@H](Nc2nc3ccccc3n3ccnc23)CC1`, the inhibition amounted to 65% in test [1], 50.9% in test [2], 37% in test [3] and 38.9% in test [4].

For the molecule `c1ccc(CNc2nc3ccccc3n3ccnc23)cc1`, the inhibition in test [1], in test [2], in test [3] and in test [4] was below 35% in each case.
